# Data as given in patent US7109338B2, “1,2-disubstituted 1,4-dihydro-4-oxoquinoline compounds” (priority 1999, dated 2006).
# Legend:
# HRV 89 (41617-Gallo) = experiment: Anti-rhinovirus activity (MTT), HRV89; format: cell-based, human rhinovirus; design: Anti-Rhinovirus activity, HRV89: unit not given here; conditions: for IC50 HRV89: HeLa (Ohio strain) cells, MTT method, 33° C.
# HRV61 (6669-CV39) = experiment: Anti-rhinovirus spectrum (MTT), HRV61; format: cell-based, human rhinovirus; design: Anti-Rhinovirus activity, HRV61: unit not given here
# HRV1A (E28) = experiment: Anti-rhinovirus activity (MTT), HRV1A; format: cell-based, human rhinovirus; design: Anti-Rhinovirus activity, HRV1A: unit not given here
# HRV41 (56110) = experiment: Anti-rhinovirus spectrum (MTT), HRV41; format: cell-based, human rhinovirus; design: Anti-Rhinovirus activity, HRV41: unit not given here
# HRV29 (5582) = experiment: Anti-rhinovirus spectrum (MTT), HRV29; format: cell-based, human rhinovirus; design: Anti-Rhinovirus activity, HRV29: unit not given here
# [1] = system: human rhinovirus type 1B (HRV 1B, B632); experiment: Anti-rhinovirus activity (MTT), HRV1B; format: cell-based; design: Anti-Rhinovirus activity, HRV1B: unit not given here; conditions: for IC50 HRV1B: HeLa (Ohio strain) cells, MTT method, 33° C.
# HRV31 (41F) = experiment: Anti-rhinovirus spectrum (MTT), HRV31; format: cell-based, human rhinovirus; design: Anti-Rhinovirus activity, HRV31: unit not given here
# HRV32 (363) = experiment: Anti-rhinovirus spectrum (MTT), HRV32; format: cell-based, human rhinovirus; design: Anti-Rhinovirus activity, HRV32: unit not given here
# HeLa (Ohio strain)cells = experiment: Cytotoxicity (MTT, without virus), HeLa(Ohio); conditions: HeLa(Ohio), no virus, incubated for 4 days
# HRV50(A2#58) = experiment: Anti-rhinovirus spectrum (MTT), HRV50; format: cell-based, human rhinovirus; design: Anti-Rhinovirus activity, HRV50: unit not given here
# HRV10 (204-CV14) = experiment: Anti-rhinovirus spectrum (MTT), HRV10; format: cell-based, human rhinovirus; design: Anti-Rhinovirus activity, HRV10: unit not given here
# HRV33 (1200) = experiment: Anti-rhinovirus spectrum (MTT), HRV33; format: cell-based, human rhinovirus; design: Anti-Rhinovirus activity, HRV33: unit not given here
# [2] = system: clinical isolate (89229T); experiment: microbe, parasite or virus in culture; format: cell-based, human rhinovirus; design: Anti-Rhinovirus activity, Clinical isolated strain: unit not given here
# HRV 2 (HGP) = experiment: Anti-rhinovirus activity (MTT), HRV2; format: cell-based, human rhinovirus; design: Anti-Rhinovirus activity, HRV2: unit not given here; conditions: for IC50 HRV2: HeLa (Ohio strain) cells, MTT method, 33° C.
# HRV39 (209) = experiment: Anti-rhinovirus spectrum (MTT), HRV39; format: cell-based, human rhinovirus; design: Anti-Rhinovirus activity, HRV39: unit not given here
# HRV5 = experiment: Anti-rhinovirus spectrum (MTT), HRV5; format: cell-based, human rhinovirus; design: Anti-Rhinovirus activity, HRV5: unit not given here
# HRV21 (47) = experiment: Anti-rhinovirus spectrum (MTT), HRV21; format: cell-based, human rhinovirus; design: Anti-Rhinovirus activity, HRV21: unit not given here
# HRV36 (342H) = experiment: Anti-rhinovirus spectrum (MTT), HRV36; format: cell-based, human rhinovirus; design: Anti-Rhinovirus activity, HRV36: unit not given here
# HRV13 (353) = experiment: Anti-rhinovirus spectrum (MTT), HRV13; format: cell-based, human rhinovirus; design: Anti-Rhinovirus activity, HRV13: unit not given here
# HRV14 (1059) = experiment: Anti-rhinovirus activity (MTT), HRV14; format: cell-based, human rhinovirus; design: Anti-Rhinovirus activity, HRV14: unit not given here
# HRV3(FEB) = experiment: Anti-rhinovirus spectrum (MTT), HRV3; format: cell-based, human rhinovirus; design: Anti-Rhinovirus activity, HRV3: unit not given here
# HRV8(MRH) = experiment: Anti-rhinovirus spectrum (MTT), HRV8; format: cell-based, human rhinovirus; design: Anti-Rhinovirus activity, HRV8: unit not given here
# HRV16 (11757) = experiment: Anti-rhinovirus spectrum (MTT), HRV16; format: cell-based, human rhinovirus; design: Anti-Rhinovirus activity, HRV16: unit not given here
# [3] = system: coxsackievirus type A7 (CA7); experiment: In vitro anti-picornavirus activity (MTT), CA7; format: cell-based; conditions: HeLa-S3 cells, MTT method, 37° C.
# [4] = system: Poliovirus type 1 (Polio 1, Sabin); experiment: microbe, parasite or virus in culture; format: cell-based
# HeLa cells = experiment: Cytotoxicity (MTT, without virus), HeLa; conditions: HeLa, no virus, incubated for 4 days
# [5] = system: coxsackievirus type B4 (CB4,JVB); experiment: In vitro anti-picornavirus activity (MTT), CB4; format: cell-based; conditions: HeLa cells, MTT method, 37° C.
# [6] = system: echovirus type 11 (Echo 11, Gregory); experiment: In vitro anti-picornavirus activity (MTT), Echo 11; format: cell-based; conditions: HeLa-S3 cells, MTT method, 37° C.
# HeLa-S3 cells = experiment: Cytotoxicity (MTT, without virus), HeLa-S3; conditions: HeLa-S3, no virus, incubated for 4 days
# [7] = HeLa (Ohio strain) cells, MTT method, 33° C.
structure (smiles),measurement,setting,value
Cc1c(-c2ccccc2)n(-c2cccc(F)c2)c2ccc(C(C)C)cc2c1=O [Compound A322],IC50 HRV89,HRV 89 (41617-Gallo),0.034 µg/mL
same,"Anti-Rhinovirus activity, HRV89","HRV 89 (41617-Gallo); Table VII, rhinovirus serotype HRV89",0.034
same,"Anti-Rhinovirus activity, HRV61","HRV61 (6669-CV39); Table VII, rhinovirus serotype HRV61",0.29
same,"Anti-Rhinovirus activity, HRV1A","HRV1A (E28); Table VII, rhinovirus serotype HRV1A, same method as above",>1.0
same,"Anti-Rhinovirus activity, HRV41","HRV41 (56110); Table VII, rhinovirus serotype HRV41",0.034
same,"Anti-Rhinovirus activity, HRV29","HRV29 (5582); Table VII, rhinovirus serotype HRV29",0.080
same,IC50 HRV1B,[1],0.18 µg/mL
same,"Anti-Rhinovirus activity, HRV1B","[1]; Table VII, rhinovirus serotype HRV1B",0.18
same,"Anti-Rhinovirus activity, HRV31","HRV31 (41F); Table VII, rhinovirus serotype HRV31",0.045
same,"Anti-Rhinovirus activity, HRV32","HRV32 (363); Table VII, rhinovirus serotype HRV32",0.020
same,Cytotoxicity CC50 HeLa(Ohio),HeLa (Ohio strain)cells,>1 µg/mL
same,"Anti-Rhinovirus activity, HRV50","HRV50(A2#58); Table VII, rhinovirus serotype HRV50",0.023
same,"Anti-Rhinovirus activity, HRV10","HRV10 (204-CV14); Table VII, rhinovirus serotype HRV10",0.013
same,"Anti-Rhinovirus activity, HRV33","HRV33 (1200); Table VII, rhinovirus serotype HRV33",0.17
same,Anti-rhinovirus activity Clinically isolated strain,"[2]; Table VII, clinical isolate (89229T)",0.017
same,IC50 HRV2,HRV 2 (HGP),0.030 µg/mL
same,"Anti-Rhinovirus activity, HRV2","HRV 2 (HGP); Table VII, rhinovirus serotype HRV2",0.030
same,"Anti-Rhinovirus activity, HRV39","HRV39 (209); Table VII, rhinovirus serotype HRV39",0.012
same,"Anti-Rhinovirus activity, HRV5","HRV5; Table VII, rhinovirus serotype HRV5",>1.0
same,"Anti-Rhinovirus activity, HRV21","HRV21 (47); Table VII, rhinovirus serotype HRV21",0.048
same,"Anti-Rhinovirus activity, HRV36","HRV36 (342H); Table VII, rhinovirus serotype HRV36",0.085
same,"Anti-Rhinovirus activity, HRV13","HRV13 (353); Table VII, rhinovirus serotype HRV13",0.029
same,"Anti-Rhinovirus activity, HRV14","HRV14 (1059); Table VII, rhinovirus serotype HRV14",>1.0
same,"Anti-Rhinovirus activity, HRV3","HRV3(FEB); Table VII, rhinovirus serotype HRV3",>1.0
same,"Anti-Rhinovirus activity, HRV8","HRV8(MRH); Table VII, rhinovirus serotype HRV8",>1.0
same,"Anti-Rhinovirus activity, HRV16","HRV16 (11757); Table VII, rhinovirus serotype HRV16",0.030
CCn1c2c(c(=O)c3cc(C(C)C)ccc31)Cc1ccccc1-2.Cl [Compound B3],"Anti-Rhinovirus activity, HRV89",HRV 89 (41617-Gallo); HRV89,0.57
same,IC50 HRV89,HRV 89 (41617-Gallo),0.57 µg/mL
same,"Anti-Rhinovirus activity, HRV61",HRV61 (6669-CV39); HRV61,0.80
same,"Anti-Rhinovirus activity, HRV1A",HRV1A (E28); HRV1A,2.6
same,IC50 HRV 1A,HRV1A (E28); [7],2.6 µg/mL
same,"Anti-Rhinovirus activity, HRV41",HRV41 (56110); HRV41,0.20
same,"Anti-Rhinovirus activity, HRV29",HRV29 (5582); HRV29,1.5
same,"Anti-Rhinovirus activity, HRV1B",[1]; HRV1B,0.30
same,IC50 HRV1B,[1],0.30 µg/mL
same,"Anti-Rhinovirus activity, HRV31",HRV31 (41F); HRV31,0.29
same,"Anti-Rhinovirus activity, HRV32",HRV32 (363); HRV32,0.61
same,Cytotoxicity CC50 HeLa(Ohio),HeLa (Ohio strain)cells,>4 µg/mL
same,"Anti-Rhinovirus activity, HRV50",HRV50(A2#58); HRV50,0.20
same,"Anti-Rhinovirus activity, HRV10",HRV10 (204-CV14); HRV10,1.8
same,IC50 CA7,[3],2.1 µg/mL
same,"Anti-Rhinovirus activity, HRV33",HRV33 (1200); HRV33,0.20
same,"Anti-Rhinovirus activity, Clinical isolated strain",[2]; Clinical isolated strain,1.9
same,"Anti-Rhinovirus activity, HRV2",HRV 2 (HGP); HRV2,0.54
same,IC50 HRV2,HRV 2 (HGP),0.54 µg/mL
same,"Anti-Rhinovirus activity, HRV39",HRV39 (209); HRV39,1.7
same,IC50 Polio 1,[4],0.72 µg/mL
same,"Anti-Rhinovirus activity, HRV5",HRV5; HRV5,0.36
same,Cytotoxicity CC50 HeLa,HeLa cells,>4 µg/mL
same,"Anti-Rhinovirus activity, HRV21",HRV21 (47); HRV21,0.20
same,IC50 CB4,[5],0.82 µg/mL
same,IC50 Echo 11,[6],0.35 µg/mL
same,"Anti-Rhinovirus activity, HRV36",HRV36 (342H); HRV36,0.30
same,Cytotoxicity CC50 HeLa-S3,HeLa-S3 cells,>4 µg/mL
same,"Anti-Rhinovirus activity, HRV13",HRV13 (353); HRV13,0.17
same,"Anti-Rhinovirus activity, HRV14",HRV14 (1059); HRV14,0.74
same,IC50 HRV 14,HRV14 (1059); [7],0.74 µg/mL
same,"Anti-Rhinovirus activity, HRV3",HRV3(FEB); HRV3,2.9
same,"Anti-Rhinovirus activity, HRV8",HRV8(MRH); HRV8,0.46
same,"Anti-Rhinovirus activity, HRV16",HRV16 (11757); HRV16,2.3
